Experiment [1] deals with NG108-15 cells. Description: Growth and FUCCI assays in NG108-15 cells (cell counts, cell cycle, recovery test). As to conditions: for fold decrease in proliferation compared to control: high serum; for FUCCI cell cycle proportion: NG108-15, day 6.
Protocol: Cells were plated in 96 well plates at a low confluence and drugs were added fresh every other day for 6 days. Some studies removed the drug at 6 days and added media with no drug for an additional 4 days to test for proliferation. Images of the cells were taken every day and a cell profiler pipeline was used to count the cells and determine the ratio of cells in each part of the cell cycle. […] Cell Culture. […] Cells were disassociated with Accutase and passaged when 70% confluent and maintained at 37° C. with 5% C02. Media was changed every two days. […] All drug screens including controls were done using 0.02% DMSO in the high serum Fluorobrite DMEM.
Growth and FUCCI assays. Both cell lines were plated at 5,000 cells per mL into black-walled flat-bottom 96-well plates coated with 1/50 dilution of Matrigel. Images of cells were taken on Day 0 and every subsequent day for 10 days using a Zeiss Axio1 fitted with an on-stage incubator and kept at 37° C. with 5% C02. A 5× objective was used along with filters for YFP, RFP, and CFP and careful calibration of each plate was done to ensure that the same fields of view were imaged each day. Drugs were added after the initial images were taken and then changed every two days until day 6. For recovery experiments, after imaging on day 6, all drugs were removed, and cells were put into imaging media without any added drugs. This media was changed every two days until day 10. Analysis of growth and snap shots of FUCCI reporters over the 6 days or 10 days was done using a CellProfiler [72]pipeline designed by the Broad. The fractional difference in cell number was calculated by dividing the total number of cells each day by the total number of cells from day 0. The ratio of cells in each cell cycle stage every day was determined by counting all the nuclei of one color and dividing it by the total number of nuclei. Blind quality control was done on all the images to make sure that any fibers or image artifacts were not incorrectly counted by the program.
For experiment [2], the system named is NG108-15 cells. Description: Automated patch-clamp electrophysiology, resting membrane potential. As to conditions: NG108-15, immediately after application. Type of experiment: cell-based, mouse/rat. As to the method:
Electrophysiology. SyncroPatch 384PE platform (Nanion Technologies®) was used to perform the automated patch-clamp experiments. This system provides giga-ohm resistance seals during simultaneous recording in the 384-well plate format. Cells were harvested 48-72 h after seeding 1-2×10^6 cells in T175 culture flasks (Falcon), then cells were rinsed with PBS (5 mL) and treated with 3 mL Accutase ([…] technologies) for 5 min at 37° C., re-suspended in 10 mL of serum-free media and pelleted at 1000 rpm for 3 min at RT. […] The cells were kept until the moment of the experiment in a temperature controlled dedicated reservoir at 10° C. and shaken at 200 rpm as described. The experiments were performed within one hour after the harvesting process. The assays were carried in single-hole chips with resistances between 4-5 MΩ after priming the chip with the following solutions (in mM), physiological extracellular solution (pECS) 10 HEPES, 140 NaCl, 5 Glucose, 4 KCl, 2 CaCl2), 1 MgCl2, 295-305 mOsm pH 7.4 (NaOH). Internal recording solution (in mM) 20 EGTA, 50 KCl, 10 NaCl, 60 KF, 10 HEPES at pH 7.2, and 285 mOsm. 15 μL of the cell suspension (50% v/v pECS/Medium no serum) was added to each well to a final density of 50-80K cells/mL. Cell capture was promoted by holding a negative pressure of −100 mbar for 20 s. After successive hyperpolarization steps from −30 mV to −100 mV enhanced the capture the seal followed by the transient addition of a high Ca2+ extracellular solution (80 mM NaCl, 3 mM KCl, 35 mM CaCl2), 10 mM MgCl2, 10 mM HEPES at pH 7.4 and 298 mOsm. High Ca2+ solution is washed out by successive external exchanges replacing half of the volume of the well each time with the external recording solution. All recording solutions were prepared with ultrapure MilliQ water (18 MD-cm). After the formation of the Giga-seal, a 250 mbar pressure was applied to break the membrane patch. Once in whole-cell configuration, different voltage protocols were applied to dissect different conductances in NG108-15 cells. Signals were recorded in the current-clamp mode “I=0” (passive conditions) where no current was injected, to monitor the membrane potential. The membrane potentials were recorded for seven sweeps of 1 sec, with an inter-sweep time of 10 s. The average membrane potentials of the 7 sweeps were reported.
Electrophysiology of NG108-15 Cells Show Changes in Resting Membrane Potential Induced by Treatment. […] Untreated cells were patched, baseline measurements were taken and then the drugs were added and the changes in the cell Vmem were recorded.

For experiment [3], the system named is human glioblastoma U87 cells. Nature of the experiment: Growth and FUCCI assays in U87 cells (cell counts, cell cycle, recovery test). Type of experiment: cell-based. The note with it: for FUCCI cell cycle proportion: U87, day 6; for recovery of proliferation after treatment removed: U87, drugs removed at day 6, followed to day 10. As to the method: U87 (ATCC) cells were cultured under the same conditions as the NG108-15 cells minus the HAT supplement and used at passage 7-10 for experiments.

The next experiment deals with U87 cells. Description: Physiological dye staining of U87 cells (DiBAC4(3), pHrodo Green, LysoSensor Green, Fluo-4 AM). Format: cell-based, human. How it is done: Dye Staining Protocols. For the Live/Dead assay, 1 μM Calcein Green AM and 0.5 μM ethidium homodimer-1 (L3224, ThermoFisher) were added to PBS along with 10 μg/mL of Hoechst to make the staining solution. Half the media was removed from the human neuronal cells that had been incubated with treatments for 3 days and replaced with staining solution. […] Cells were then incubated for 15 min at 37° C. and imaged. For resting membrane potential staining, DiBAC4(3) was used. U87 cells were seeded at 10,000 cells per mL on Matrigel coated plates as described above. Cells were treated with drugs for 6 days with changes in media every other day. On day 6 the media was removed and washed once with dye buffer consisting of Hank's Balanced Salt Solution (HBSS) with 20 mM HEPES at pH 7.4 and then the staining solution, consisting of dye buffer with 2 μM DiBAC4(3) was added to the cells and allowed to incubate for 30 min at 37° C. The staining solution was then removed and fresh staining solution containing the treatments were added to the cells. For cytoplasmic calcium staining, Fluo-4 AM was used. The staining solution consisted of dye buffer with 4 μM Fluo-4 AM and a 1:1 ratio of Pluronic F-127 (20% in DMSO) and allowed to incubate for 30 min at room temperature. The staining solution was then removed, and fresh dye buffer was added and allowed to incubate for 20 min at 37° C. Then dye buffer containing the treatments were added to the cells. For cytoplasmic pH staining, pHrodo Green was used. The staining solution consisted of dye buffer with a 1:1000 dilution of the pHrodo Green stock and a 1:100 dilution of the PowerLoad concentrate (P35373, ThermoFisher). The cells were allowed to incubate for 30 min at 37° C. Staining solution was removed and washed once with dye buffer then fresh dye buffer containing the treatments were added and allowed to incubate for 5 min at 37° C. Calibration curve was done by instead adding the components of the intracellular pH calibration kit (P35379 ThermoFisher). For lysosomal pH staining, LysoSensor Green was used. The staining solution consisted of dye buffer with a 1 μM dilution of LysoSensor Green DND-187 (L7535 ThermoFisher). The cells were incubated as above and staining solution was removed and replaced with dye buffer containing 2.5 μg/mL Hoechst 33342 for 10 min. Hoechst was removed and cells were washed with dye buffer one time before adding dye buffer containing the treatments. Cells were imaged using an EVOS M7000 system outfitted with a GFP filter cube for stains and a DAPI filter for Hoechst. Images were then analyzed using a CellProfiler pipeline.

“Also recorded” adds a separate entry of the source.

Regarding `O=C(Nc1cc(C(F)(F)F)ccc1O)Nc1cc(C(F)(F)F)ccc1O` [NS1643], the “fold decrease in proliferation compared to control” value in the experiment with NG108-15 cells [1] (NG108-15, 6 days of treatment, NS1643 at 20 μM) is “about 1.6 fold”. The “fold decrease in proliferation compared to control” value in the experiment on NG108-15 cells [1] (NG108-15, 6 days of treatment, NS1643 at 50 μM) was approximately 2.4 fold. Moreover, the “FUCCI cell cycle proportion” value in the experiment with NG108-15 cells [1] is reported as “did not seem to affect the cell cycle proportion”. For the same molecule, the “change in resting membrane potential compared to control” value in the experiment on NG108-15 cells [2] was “significantly hyperpolarized”. In addition, the “fold decrease in cell proliferation to control” value in experiment [3] (U87, 6 days, NS1643 at 50 μM) is listed as 1.7 fold. Also, in experiment [3], the “FUCCI cell cycle proportion” value is “did not show a large change in proportion of cells” and the “recovery of proliferation after treatment removed” value (shortened to “recovery of proliferation”) is given as “high increase in proliferation”. Also, the “resting membrane potential by voltage dye DiBAC4(3)” value in the experiment with U87 cells (U87, 6 day treated) is reported as “significant hyperpolarization”. Further, in the experiment with U87 cells (U87, 6 days), the “cytoplasmic calcium levels (Fluo-4AM)” value was “increase cytoplasmic calcium levels” and the “lysosomal pH (LysoSensor Green)” value is “dramatic alkalization of the lysosomes”.
For the molecule `COc1ccnc(C[S+]([O-])c2nc3ccc(OC(F)F)cc3[nH]2)c1OC` (centres unmarked) [Pantoprazole, pantoprazole], the “cell proliferation compared to control (words)” value with NG108-15 cells [1] (NG108-15, 6 days of treatment) is recorded as “very significant decrease in cell proliferation”. The “FUCCI cell cycle proportion” value in the experiment on NG108-15 cells [1] is recorded as “increase in cells arrested at late S phase; also recorded: increases the proportion of cells in early S”. Besides, in the experiment on NG108-15 cells [1] (NG108-15, drugs removed at day 6, followed to day 10), the “recovery of proliferation” value is reported as “immediately re-entered the cell cycle”. In addition, the “change in resting membrane potential compared to control” value with NG108-15 cells [2] is on record as “did not have an immediate effect”. In addition, the “cell proliferation compared to single compound alone” value in experiment [3] (U87, 6 days) is recorded as “significantly more effective at reducing cell proliferation after 6 days of treatment than TMZ alone”. In addition, in experiment [3] (U87, 6 days of treatment), the “percent reduction in cells compared to control” value is on record as 54%. Also, in experiment [3], the “FUCCI cell cycle proportion” value is recorded as “increase in the early S proportion of cells” and the “recovery of proliferation” value was “immediately re-entered the cell cycle”. For the same molecule, in the experiment on U87 cells (U87, 6 days), the “lysosomal pH (LysoSensor Green)” value was “did not show an alkalinization of the lysosome” and the “lysosomes (LysoSensor Green signal)” value is listed as “significant increase in lysosomes”.

These data come from patent US20250049747A1, “USE OF HYPERPOLARIZING AGENTS ALONE AND IN COMBINATION WITH OTHER THERAPEUTIC AGENTS FOR TREATING CANCERS INCLUDING GLIOBLASTOMA” (Trustees of Tufts College, priority 2021, published 2025).
